From patent publication US9067926B2, “Fluoromethyl-5,6-dihydro-4H-[1,3]OXAZINES” (F. Hoffmann-La Roche AG, priority 2012, dated 2015)

Experiments:
[1] = biological target: T1, cathepsin D (from human liver) (Homo sapiens, UniProt P07339); experiment: Cathepsin D fluorescent substrate kinetic assay; assay type: biochemical; details: pH 5.5
T1 construct: cathepsin D (from human liver, Calbiochem) diluted in assay buffer; purchased Calbiochem; host or cells: human liver
Source text: (§1) Cathepsin D and Cathepsin E Fluorescent Substrate Kinetic Assays
(§2) The MR121 fluorescence assays described below are based on the fact that MR121 forms a non-fluorescent ground state complex with tryptophan. In solution this formation occurs at millimolar concentrations of tryptophan. The mechanism can be used to design a generic biochemical assay for proteases. […] In absence of protease activity, the substrates remain intact and the MR121 fluorescence is reduced by the high local Trp-concentration. If the substrates are cleaved by the enzymes the MR121 fluorescence is recovered.
(§3) The fluorescent substrate cathepsin D and cathepsin E kinetic assays were performed at room temperature in 384-well microtiter plates (black with clear flat bottom, non binding surface plates from Corning) in a final volume of 51 μl. The test compounds were serially diluted in DMSO (15 concentrations, 1/3 dilution steps) and 1 μl of diluted compounds were mixed for 10 min with 40 μl of cathepsin D (from human liver, Calbiochem) diluted in assay buffer (100 mM sodium acetate, 0.05% BSA, pH 5.5; final concentration: 200 nM) or with 40 μl of recombinant human cathepsin E (R&D Systems) diluted in assay buffer (100 mM sodium acetate, 0.05% BSA, pH 4.5; final concentration: 0.01 nM). […] The slope in the linear range of the kinetic was calculated and the IC50 of the test compounds were determined using a four parameter equation for curve fitting.

[2] = biological target: T2, recombinant human cathepsin E (Homo sapiens, UniProt P14091); experiment: Cathepsin E fluorescent substrate kinetic assay; assay type: biochemical; details: pH 4.5
T2 construct: purchased R&D Systems
T2 sequence (P14091 54-396): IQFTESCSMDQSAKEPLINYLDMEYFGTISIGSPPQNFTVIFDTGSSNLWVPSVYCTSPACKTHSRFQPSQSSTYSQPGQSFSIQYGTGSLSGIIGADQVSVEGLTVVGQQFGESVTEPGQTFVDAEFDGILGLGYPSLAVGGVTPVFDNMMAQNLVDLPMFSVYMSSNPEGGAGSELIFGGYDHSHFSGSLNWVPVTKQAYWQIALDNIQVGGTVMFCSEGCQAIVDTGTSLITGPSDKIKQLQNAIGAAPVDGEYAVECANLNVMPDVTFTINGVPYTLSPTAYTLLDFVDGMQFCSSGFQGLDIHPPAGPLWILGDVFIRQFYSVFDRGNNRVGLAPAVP
Source text: as §1, §2, §3

[3] = biological target: T3, CYP3A4 (Homo sapiens, UniProt P08684); experiment: CYP inhibition assay, CYP3A4; assay type: in vitro ADME; details: pooled human liver microsomes, midazolam substrate; read-out: CYP IC50 3A4
T3 construct: 0.2 mg/ml pooled human liver microsomes; from tissue; host or cells: pooled human liver microsomes
T3 sequence (P08684 whole entry): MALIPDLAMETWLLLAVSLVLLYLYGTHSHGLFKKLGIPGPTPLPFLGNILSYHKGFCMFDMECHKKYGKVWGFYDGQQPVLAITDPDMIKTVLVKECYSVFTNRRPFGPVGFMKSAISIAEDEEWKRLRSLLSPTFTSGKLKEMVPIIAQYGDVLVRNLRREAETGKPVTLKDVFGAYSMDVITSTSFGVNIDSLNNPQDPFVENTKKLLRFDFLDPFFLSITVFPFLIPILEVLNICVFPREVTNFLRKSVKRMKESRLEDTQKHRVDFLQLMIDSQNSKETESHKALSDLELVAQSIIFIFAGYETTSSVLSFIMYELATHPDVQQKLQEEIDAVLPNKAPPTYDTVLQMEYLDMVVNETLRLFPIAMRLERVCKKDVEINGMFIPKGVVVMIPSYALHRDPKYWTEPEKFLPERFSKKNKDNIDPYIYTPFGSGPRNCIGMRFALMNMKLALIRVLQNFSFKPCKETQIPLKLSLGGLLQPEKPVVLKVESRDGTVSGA
Experimental: (§4) Inhibition of cytochromes P450 (CYPs) 2C9, 2D6 and 3A4 was assessed using human liver microsomes and CYP-selective substrate metabolism reactions. […] Quenched incubates were stored at −20° C. for at least 1 hour before centrifugation (20,000×g, 20 minutes). Supernatants were removed and diluted 1:1 with water prior to analysis using a RapidFire sample injector system and API4000 mass spectrometer. Peak areas for substrate, metabolite and stable-labelled metabolite standard were determined using MS/MS. The peak area ratios between the metabolite generated by the enzymatic reaction and the internal standard were used in subsequent calculations. The percentage of (DMSO) control activity was calculated for each incubate and IC50 values estimated by non-linear regression. Sulfaphenazole, quinidine or ketoconazole were tested in each CYP2C9, CYP2D6 or CYP3A4 inhibition experiment, respectively, to ensure assay sensitivity and reproducibility.

[4] = test system: Aβ40 in brain; experiment: In vivo inhibition of Aβ40 in brain of wild-type mice; details: Mus musculus, po; 10 mg/kg p.o., brain Aβ40 after 4 h, female C57Bl/6J mice; read-out: in vivo effect, Percentage of control @ 10 mg/kg p.o
Experimental: In Vivo Experiments. […] The test compound was dissolved in 5% EtOH, 10% Solutol and was applied per os at 10 ml/kg. After 4 h the animals were sacrificed and brain and plasma were collected. The brain was cut into halves and immediately frozen on dry ice. Brain was used for measurement of Aβ40 and plasma was used for determination of compound exposure. […] Brain tissue was homogenized in 2% DEA buffer in a Roche […] (20'', 4000 rpm) and subsequently centrifuged for 1 h at 100'000 g. DEA was reduced to 0.2% in 50 mM NaCl and one half of the DEA lysate was passed over an Oasis Solid Phase extraction plate (Waters; Cat.Nr. 186000679) which had been activated with MeOH and equilibrated in dH2O (1 ml each). After washes in 10% and 30% MeOH (1 ml each) the AP-peptides were eluted in 0.8 ml 2% NH4OH in 90% MeOH. […] Aβ40 was determined by an AlphaLISA assay (Perkin Elmer). In a white 96well half-area microplate (Perkin Elmer Cat.Nr. 6005561), 20 μl of the reconstituted sample were mixed with 5 μl biotinylated BAP-24 (specific for C-terminus of Aβ40 (Brockhaus, M.; Grunberg, J.; Rohrig, S.; Loetscher, H.; Wittenburg, N.; Baumeister, R.; Jacobsen, […]. Caspase-mediated cleavage is not required for the activity of presenilins in amyloidogenesis and NOTCH signaling. […] The mix was incubated for 1 h at RT in the dark. Then 20 μl Streptavin-coated Donor Beads (Perkin Elmer Cat. Nr. 6760002, final dilution 1:125) were added and this final mix was incubated in the dark for another 30 min at r.t. before RFU was measured in an AlphaScreen Reader(Perkin Elmer Envision 2104).

[5] = biological target: T4, CYP2D6 (Homo sapiens, UniProt P10635); experiment: CYP inhibition assay, CYP2D6; assay type: in vitro ADME; details: pooled human liver microsomes, dextromethorphan substrate; read-out: CYP IC50 2D6
T4 construct: 0.2 mg/ml pooled human liver microsomes; from tissue; host or cells: pooled human liver microsomes
T4 sequence (P10635 whole entry): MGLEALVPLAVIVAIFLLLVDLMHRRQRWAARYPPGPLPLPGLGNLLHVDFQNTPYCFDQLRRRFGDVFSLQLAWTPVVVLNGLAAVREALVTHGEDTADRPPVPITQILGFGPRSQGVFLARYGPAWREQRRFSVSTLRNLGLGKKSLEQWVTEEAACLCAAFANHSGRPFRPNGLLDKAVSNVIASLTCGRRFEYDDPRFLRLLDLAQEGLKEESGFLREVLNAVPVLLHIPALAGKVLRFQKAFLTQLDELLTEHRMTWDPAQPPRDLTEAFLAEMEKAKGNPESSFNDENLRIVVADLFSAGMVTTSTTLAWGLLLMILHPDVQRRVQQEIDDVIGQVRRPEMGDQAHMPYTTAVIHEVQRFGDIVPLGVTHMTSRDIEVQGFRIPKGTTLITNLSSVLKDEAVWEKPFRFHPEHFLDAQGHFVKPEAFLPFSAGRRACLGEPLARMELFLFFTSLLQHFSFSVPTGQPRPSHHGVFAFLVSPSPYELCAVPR
Experimental: as §4

[6] = Detection of glutathione conjugates (GSH); assay type: in vitro ADME, human; set-up: key: NF = in vitro no adduct formation relative to control; details: in vitro, relative to control
Source text: Detection of Glutathione Conjugates (GSH) The assay conditions for the detection of glutathione conjugates follow the procedure described by C. M. Dieckhaus et al. in Chem. Res. Toxicol. 2005, 18, 630-63.

[7] = biological target: T5, CYP2C9 (Homo sapiens, UniProt P11712); experiment: CYP inhibition assay, CYP2C9; assay type: in vitro ADME; details: pooled human liver microsomes, diclofenac substrate; read-out: CYP IC50 2C9
T5 construct: 0.2 mg/ml pooled human liver microsomes; from tissue; host or cells: pooled human liver microsomes
T5 sequence (P11712 whole entry): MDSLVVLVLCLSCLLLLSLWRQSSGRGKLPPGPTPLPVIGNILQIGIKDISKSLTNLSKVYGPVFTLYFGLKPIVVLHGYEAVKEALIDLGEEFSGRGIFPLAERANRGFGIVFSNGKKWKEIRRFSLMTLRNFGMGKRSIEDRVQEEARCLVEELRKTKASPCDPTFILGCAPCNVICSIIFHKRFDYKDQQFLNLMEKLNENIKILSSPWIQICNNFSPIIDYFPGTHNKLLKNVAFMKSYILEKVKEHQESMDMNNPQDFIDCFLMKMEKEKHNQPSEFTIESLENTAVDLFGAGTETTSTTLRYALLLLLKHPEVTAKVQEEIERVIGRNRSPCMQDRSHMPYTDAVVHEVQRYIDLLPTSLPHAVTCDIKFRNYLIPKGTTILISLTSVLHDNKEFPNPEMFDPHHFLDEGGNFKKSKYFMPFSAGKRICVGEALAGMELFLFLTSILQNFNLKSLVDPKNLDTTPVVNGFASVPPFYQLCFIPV
Experimental: as §4

[8] = biological target: hERG (Homo sapiens, UniProt Q12809); experiment: hERG current measurement (automated patch clamp); assay type: cell-based
Sequence of hERG (Q12809 whole entry): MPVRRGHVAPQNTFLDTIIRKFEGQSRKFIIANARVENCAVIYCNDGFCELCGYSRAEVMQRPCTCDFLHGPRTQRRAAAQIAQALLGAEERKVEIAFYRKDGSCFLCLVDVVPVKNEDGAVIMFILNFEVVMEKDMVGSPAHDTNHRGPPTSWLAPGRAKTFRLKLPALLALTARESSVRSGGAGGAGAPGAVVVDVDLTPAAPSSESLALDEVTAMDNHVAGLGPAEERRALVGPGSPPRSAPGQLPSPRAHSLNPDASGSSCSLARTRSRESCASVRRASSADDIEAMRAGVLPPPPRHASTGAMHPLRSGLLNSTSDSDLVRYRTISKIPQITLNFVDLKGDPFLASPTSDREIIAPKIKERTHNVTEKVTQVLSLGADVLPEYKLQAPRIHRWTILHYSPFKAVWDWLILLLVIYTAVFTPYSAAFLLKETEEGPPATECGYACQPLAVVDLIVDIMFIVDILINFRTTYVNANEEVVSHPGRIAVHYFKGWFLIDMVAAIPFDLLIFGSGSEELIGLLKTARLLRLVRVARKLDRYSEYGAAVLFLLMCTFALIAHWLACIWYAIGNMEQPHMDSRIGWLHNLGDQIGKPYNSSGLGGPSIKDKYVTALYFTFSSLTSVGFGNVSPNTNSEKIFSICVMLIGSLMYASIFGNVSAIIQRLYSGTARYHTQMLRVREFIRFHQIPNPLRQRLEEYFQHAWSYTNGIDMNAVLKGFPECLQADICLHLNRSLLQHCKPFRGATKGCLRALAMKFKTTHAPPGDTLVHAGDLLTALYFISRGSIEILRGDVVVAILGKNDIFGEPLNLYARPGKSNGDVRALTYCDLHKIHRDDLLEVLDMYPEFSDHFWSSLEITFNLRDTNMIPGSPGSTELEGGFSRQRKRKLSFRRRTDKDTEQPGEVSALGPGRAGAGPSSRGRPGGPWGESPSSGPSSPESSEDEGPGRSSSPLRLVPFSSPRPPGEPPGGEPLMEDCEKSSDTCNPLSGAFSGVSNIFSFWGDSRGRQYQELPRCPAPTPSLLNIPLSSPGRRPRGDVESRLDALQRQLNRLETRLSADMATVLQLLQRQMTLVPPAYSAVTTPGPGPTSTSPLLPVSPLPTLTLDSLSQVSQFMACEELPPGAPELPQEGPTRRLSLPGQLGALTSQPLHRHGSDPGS
Experimental: The hERG current measurement was performed at an automated patch clamp system following the procedure described in R. E. Martin et al. in Bio org.

T1 sequence (P07339 65-412): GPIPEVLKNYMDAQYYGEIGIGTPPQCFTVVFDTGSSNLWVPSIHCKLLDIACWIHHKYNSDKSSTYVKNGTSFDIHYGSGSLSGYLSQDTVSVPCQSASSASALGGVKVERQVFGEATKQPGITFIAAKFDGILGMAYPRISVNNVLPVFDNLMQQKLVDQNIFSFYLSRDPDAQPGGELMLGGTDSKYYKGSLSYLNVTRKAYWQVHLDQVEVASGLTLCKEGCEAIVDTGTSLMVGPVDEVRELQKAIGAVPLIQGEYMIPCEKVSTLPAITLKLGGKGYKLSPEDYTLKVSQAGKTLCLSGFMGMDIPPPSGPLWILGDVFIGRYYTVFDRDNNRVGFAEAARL

Structure (SMILES) | IC50 [1] [µM] | IC50 [2] [µM] | IC50 [3] [µM] | response vs control in vivo at 10 mg/kg [4] [%] | IC50 [5] [µM] | GSH human (glutathione adduct formation) [6] | IC50 [7] [µM] | hERG Inhibition @ 10 μM [8]
N#Cc1ccc(C(=O)Nc2ccc(F)c([C@]3(CF)C[C@@H](C(F)(F)F)OC(N)=N3)c2)nc1 [Example 3, N-(3-((4S,6S)-2-amino-4-(fluoromethyl)-6-(trifluoromethyl)-5,6-dihydro-4H-1,3-oxazin-4-yl)-4-fluorophenyl)-5-cyanopicolinamide] | > 200 | > 200 | – | – | – | – | – | –
COc1cnc(C(=O)Nc2ccc(F)c([C@]3(CF)C[C@@H](C(F)(F)F)OC(N)=N3)c2)cn1 [Example 36, N-(3-((4S,6S)-2-Amino-4-(fluoromethyl)-6-(trifluoromethyl)-5,6-dihydro-4H-1,3-oxazin-4-yl)-4-fluorophenyl)-5-methoxypyrazine-2-carboxamide] | > 200 | > 200 | > 50 | 88 | 16 | NF | > 50 | 7
NC1=N[C@](CF)(c2cc(NC(=O)c3nn(C(F)F)cc3Cl)ccc2F)C[C@@H](C(F)(F)F)O1 [Example 46, N-(3-((4S,6S)-2-Amino-4-(fluoromethyl)-6-(trifluoromethyl)-5,6-dihydro-4H-1,3-oxazin-4-yl)-4-fluorophenyl)-4-chloro-1-(difluoromethyl)-1H-pyrazole-3-carboxamide] | > 200 | > 200 | > 50 | 61 | 24 | NF | > 50 | 8
